Test results: US20050131045A1, “Novel crystal forms of ondansetron, processes for their preparation, pharmaceutical, compositions containing the novel forms and methods for treating nausea using them” (priority 2002, published 2005)

Assay: Solubility in C1-C3 alcohols
Type: physicochemical
Details: methanol, ethanol, propan-1-ol, propan-2-ol; room temperature
Description: Ondansetron Form B may be prepared by crystallizing ondansetron from a solution in a C1-C3 alcohol, in particular, methanol, ethanol, propan-1-ol, propan-2-ol and mixtures thereof. Ondansetron is dissolved in the C1-C3 alcohol, preferably in an amount sufficient to produce from about a 50 mM to about a 300 mM solution, more preferably from about an 85 mM to about a 150 mM solution. […] Consequently, it may be necessary to heat the mixture in order to fully dissolve it. Preferably, the mixture is refluxed until the mixture becomes a clear solution. The solution is preferably free of solid ondansetron that could potentially seed the mixture causing precipitation of ondansetron in a crystalline form other than Form B or co-crystallization of Form B with another form. Preferably, the Form B obtained by crystallization from the alcohol solution contains less than or equal to about 5% other crystalline forms of ondansetron, more preferably Form B contains less than or equal to about 1% other crystalline forms of ondansetron.

solubility in C1-C3 alcohols: limited solubility
SMILES: Cc1nccn1CC1CCc2c(c3ccccc3n2C)C1=O (racemic) [Ondansetron, (±) 1,2,3,9-Tetrahydro-9-methyl-3-[2-methyl-1H-imidazol-1-yl)methyl]-4H-carbazol-4-one]
